The source of these data is publication PMC3358308 (2012).

For assay [1], the system named is LD (DNA, duplex) GCGCAATTGCGC
As to the kind of experiment: UV-Vis absorption, fluorescence. The note with it: K+ 50 mM (KCl); 10 mM Tris-HCl pH 7.0, 1 mM EDTA; 5 µM compound, 10 µM strand; weak new band at 682 nm.

Assay [2] concerns Hum24 (DNA, G4) TTAGGGTTAGGGTTAGGGTTAGGG
As to the kind of experiment: UV-Vis absorption titration, Job plot, fluorescence. Particulars: K+ 50 mM (KCl); 10 mM Tris-HCl pH 7.0, 1 mM EDTA, 25 °C; 5 µM compound; Scatchard two-site, constants not given.

Assay [3] has as its system M3Q (DNA, G4) GAGGGAGGGAGGGAGAGGGA
The assay is described as above. Particulars: K+ 50 mM (KCl); 10 mM Tris-HCl pH 7.0, 1 mM EDTA, 25 °C; 5 µM compound; Scatchard two-site, constants not given.

Assay [4] has as its system KRAS (DNA, G4) AGGGCGGTGTGGGAAGAGGGAAGAGGGGGAGG
The description is as above. The note with it: K+ 50 mM (KCl); 10 mM Tris-HCl pH 7.0, 1 mM EDTA, 25 °C; 5 µM compound; Scatchard two-site, constants not given.

Assay [5] relates to Oxy28 (DNA, G4) GGGGTTTTGGGGTTTTGGGGTTTTGGGG
Described as above. Particulars: K+ 50 mM (KCl); 10 mM Tris-HCl pH 7.0, 1 mM EDTA, 25 °C; 5 µM compound; Scatchard two-site, constants not given.

Each structure is given as a SMILES string.

On to `C[N+]1(CCOc2ccc(-c3c4nc(c(-c5ccc(OCC[N+]6(C)CCCCC6)cc5)c5ccc([nH]5)c(-c5ccc(OCC[N+]6(C)CCCCC6)cc5)c5nc(c(-c6ccc(OCC[N+]7(C)CCCCC7)cc6)c6ccc3[nH]6)C=C5)C=C4)cc2)CCCCC1`, for which the binding result was “weak” in assay [1]; “yes” in assay [2]; “yes” in assay [3]; “yes” in assay [4]; “yes” in assay [5].
